Results on seven molecules are retold here after US20150011566A1, “N-PHENYLPIPERAZINE DERIVATIVES THAT ARE ANTAGONISTS OF A1A, A1D ADRENOCEPTORS AND 5-HT1A RECEPTORS FOR THE TREATMENT OF BENIGN PROSTATE HYPERPLASIA, PHARMACEUTICAL COMPOSITIONS CONTAINING THE SAME” (UNIVERSIDADE FEDERAL DO RIO DE JANEIRO-UFRJ, priority 2012, published 2015).

As a reminder, the Ki is the dissociation constant of the complex between target and ligand, obtained from inhibition or displacement.

One test addresses D2-Like receptors (Rattus norvegicus, UniProt P61169). Kind of test: D2-like receptors binding assay, [3H]-YM 09151-2 (rat striatal membranes). Particulars: Table 15; for Ki: Cheng-Prusoff. As for the experimental part:
Briefly, organs were homogenized for 30 seconds three times in Fisatom in 50 mM Tris-HCl, MgCl2 8 mM, 5 mM EDTA (pH 7.4 at 4° C.) and then centrifuged at 48,000×gav (20 minutes 4° C.). The pellet was resuspended in 50 mM Tris-HCl, 8 mM MgCl2, 5 mM EDTA (pH 7.4 at 37° C.), incubated at 37° C. for 10 minutes and centrifuged twice more. The final pellet was resuspended in the same buffer at a concentration of 1.5 mL/g tissue.
Non-specific binding was measured in the presence of 30 μM sulpiride. Assays were performed in triplicate.
The radioactivity retained on the filters was then determined in a liquid scintillation counter (Packard Tri-Carb 1600 TR). For these receptors were also determined IC50 and Ki parameters.

The target of the next test is T1, α1D receptors (Homo sapiens, UniProt P25100).
T1 construct: endogenous in cells; host or cells: DU-145
T1 sequence (P25100 1-572): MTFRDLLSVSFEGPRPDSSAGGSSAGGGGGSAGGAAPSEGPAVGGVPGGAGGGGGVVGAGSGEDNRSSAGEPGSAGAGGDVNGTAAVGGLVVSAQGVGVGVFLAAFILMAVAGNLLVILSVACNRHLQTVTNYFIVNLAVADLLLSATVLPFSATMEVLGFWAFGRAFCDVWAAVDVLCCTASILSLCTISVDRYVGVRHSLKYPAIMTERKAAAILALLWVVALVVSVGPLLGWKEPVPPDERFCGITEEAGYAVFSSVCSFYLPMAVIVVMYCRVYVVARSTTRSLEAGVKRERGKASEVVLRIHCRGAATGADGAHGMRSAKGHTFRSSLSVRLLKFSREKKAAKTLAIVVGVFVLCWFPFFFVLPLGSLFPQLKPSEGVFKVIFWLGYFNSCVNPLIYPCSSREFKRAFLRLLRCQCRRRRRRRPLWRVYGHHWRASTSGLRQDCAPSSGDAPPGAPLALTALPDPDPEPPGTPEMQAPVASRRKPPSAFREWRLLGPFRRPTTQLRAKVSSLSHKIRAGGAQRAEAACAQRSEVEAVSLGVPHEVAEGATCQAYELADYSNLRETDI
Kind of test: Cell proliferation in vitro, DU-145 cells stimulated with phenylephrine (MTT). Format: cell-based. To be noted: for Proliferation percentage in relation to basel (100%) in the presence of LDT's, α1D: 48 h; for inhibition of the effect of the α1D receptors stimulus on proliferation: LDT3 50 nM, LDT66 20 nM. As for the experimental part:
Human prostate cancer cells (DU-145) were cultured in medium (RPMI 1640) until confluence. Then the cells were dissociated, plated (5×10^3 cells/well) and maintained in medium free of fetal bovine serum for 24 hours. […] Cell proliferation was assessed by using the MTT technique (MOSMANN, T. Immunol Methods. 16; 65 (1-2):55-63, 1983).

A further test addresses T2, α1D adrenoceptors (Rattus norvegicus, UniProt P23944).
T2 construct: the rat thoracic aorta corresponds to a tissue expressing mainly α1D-adrenoceptors; from tissue; host or cells: rat thoracic aorta rings
T2 sequence (P23944 1-561): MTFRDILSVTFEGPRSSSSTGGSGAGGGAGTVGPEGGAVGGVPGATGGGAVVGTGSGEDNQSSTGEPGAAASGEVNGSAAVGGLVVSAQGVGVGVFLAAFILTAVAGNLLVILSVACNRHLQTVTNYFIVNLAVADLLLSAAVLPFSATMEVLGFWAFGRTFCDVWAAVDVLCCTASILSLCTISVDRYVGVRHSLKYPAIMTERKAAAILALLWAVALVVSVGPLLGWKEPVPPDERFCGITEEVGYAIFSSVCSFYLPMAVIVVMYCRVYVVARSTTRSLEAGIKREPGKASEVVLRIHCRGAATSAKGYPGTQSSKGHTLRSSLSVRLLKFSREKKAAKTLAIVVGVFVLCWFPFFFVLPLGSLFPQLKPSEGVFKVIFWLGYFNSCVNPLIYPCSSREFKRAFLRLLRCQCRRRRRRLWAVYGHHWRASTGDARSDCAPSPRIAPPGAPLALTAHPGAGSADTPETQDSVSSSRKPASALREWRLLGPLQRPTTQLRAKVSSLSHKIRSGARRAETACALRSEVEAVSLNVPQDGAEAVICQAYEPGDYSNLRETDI
Kind of test: Phenylephrine-induced contraction inhibition in rat aorta (isometric contraction, Schild KB). To be noted: ratio of EC50 in presence and absence of test substance, 2 nM. Format: cell-based.

The mark [1] stands for this setting: DU-145, phenylephrine 3 μM + test substance 50 nM.

Marks after values point to notes of the source that are not given here.

Sequence of D2-Like receptors (P61169 whole entry): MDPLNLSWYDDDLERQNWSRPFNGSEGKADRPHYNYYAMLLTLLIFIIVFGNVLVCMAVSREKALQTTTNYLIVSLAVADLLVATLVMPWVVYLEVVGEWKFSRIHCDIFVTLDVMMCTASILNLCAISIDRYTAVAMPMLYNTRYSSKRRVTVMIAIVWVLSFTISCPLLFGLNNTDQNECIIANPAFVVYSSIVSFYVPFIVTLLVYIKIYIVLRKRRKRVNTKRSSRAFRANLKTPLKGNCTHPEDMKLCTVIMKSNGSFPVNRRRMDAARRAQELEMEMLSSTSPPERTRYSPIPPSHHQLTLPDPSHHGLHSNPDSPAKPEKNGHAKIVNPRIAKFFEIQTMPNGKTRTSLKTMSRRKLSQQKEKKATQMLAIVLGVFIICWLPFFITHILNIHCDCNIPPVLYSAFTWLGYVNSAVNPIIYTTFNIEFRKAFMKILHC

`CCCCCCCN1CCN(c2ccccc2OC)CC1` [LDT 67]: on D2-Like receptors, the “-log IC50 (M)” value amounted to 7.47 ± 0.07 M and the Ki amounted to 9 nM.
Take `COc1cccc(CCN2CCN(c3ccccc3OC)CC2)c1` [LDT 3]: the “Proliferation percentage in relation to basel (100%) in the presence of LDT's, α1D” value at α1D receptors (DU-145, phenylephrine 3 μM + test substance 500 nM) is listed as 99.2 ± 5.8^a %. Moreover, the “inhibition of the effect of the α1D receptors stimulus on proliferation” value against α1D receptors was “inhibited the effect”.
With `COc1ccc(CCN2CCN(c3ccccc3OC)CC2)cc1OC` [LDT 5], on D2-Like receptors, the Ki is 100 nM. For the same molecule, the “Proliferation percentage in relation to basel (100%) in the presence of LDT's, α1D” value at α1D receptors (setting [1]) was found to be 117.3 ± 8.9%.
As to `CCCCCCN1CCN(c2ccccc2OC)CC1` [LDT 66], on D2-Like receptors, the “-log IC50 (M)” value was determined as 6.92 ± 0.11 M and the affinity, expressed as Ki, was 40 nM. The “Proliferation percentage in relation to basel (100%) in the presence of LDT's, α1D” value on α1D receptors (setting [1]) is given as 76 ± 7.7^a %. Besides, the “inhibition of the effect of the α1D receptors stimulus on proliferation” value against α1D receptors is on record as “inhibited the effect”.
As to `CCOc1ccccc1N1CCN(CCc2ccc3c(c2)OCO3)CC1` [LDT 8], the “Proliferation percentage in relation to basel (100%) in the presence of LDT's, α1D” value at α1D receptors (DU-145, phenylephrine 3 μM + test substance 5 nM) turned out to be 124.05 ± 9.6%.
For `CCCCCCCCN1CCN(c2ccccc2OC)CC1` [LDT 68], at D2-Like receptors, the “-log IC50 (M)” value was 7.49 ± 0.09 M and the Ki came out at 9 nM.
Turning to `CCOc1ccccc1N1CCN(CCc2ccc(OC)c(OC)c2)CC1` [LDT 245], the “CR ± EPM” value on α1D adrenoceptors was found to be 3.9 ± 1.0.
